Patent EP4671251A1, “SALTS OF COMPOUNDS, CRYSTAL FORMS THEREOF, PREPARATION METHOD THEREFOR AND USE THEREOF” (TenNor Therapeutics (Suzhou) Limited, priority 2023, dated 2024)
Values after ≈ are worked out from the molar mass of the structure shown. Structures can show the parent of a compound that is named as a salt. Where two headings read alike, the source gives them in different places.

Columns and labels:
Assay type in all cases: physicochemical
[1] = Hygroscopicity test (dynamic vapor sorption, DVS)
Source text: The DVS results of the crystal form I (FIG. 12A) show slow weight gains from 0 to 60% RH and 70% RH to 95% RH, and a rapid weight gain from 60% RH to 70% RH.

[2] = Stability test, open conditions at 25 °C/60% RH and 40 °C/75% RH for 3 days; conditions: for Change in appearance / Change in crystal form / Purity: 3 days
Procedure: Samples were separately taken from two crystal forms I and II of the monotriphenylacetate salt of the exemplary compound of formula (II) and left to stand in open conditions at 25 °C/60% RH and 40 °C/75% RH for 3 days.
Table 4. Summary of stability study data

[3] = Kinetic solubility in water and four biological media at 37 °C; conditions: for S: Solubility / solubility at 1 h / solubility at 4 h / solubility at 24 h: about 10 mg/mL sample added; for S: Solubility: LOQ = 0.099 µg/mL; for solubility at 1 h / solubility at 4 h / solubility at 24 h: read-out: S: Solubility; for FC: change in appearance: solid by XRPD; for pH: supernatant
Procedure: About 10 mg/mL of sample (on a free base basis) was added to various biological media. After shaking at 100 rpm at 37 °C (for 1/4/24 h), samples 01-05 were centrifuged, and the solids were collected for XRPD test, while the supernatant was used for detection and pH measurement.
Table 9. Kinetic solubility of crystal form I in water and four biological media at 37 °C (mg/mL)

[4] = Approximate solubility of the starting free base at room temperature; conditions: room temperature (about 25 °C)
Procedure: The approximate solubility of the starting free base of the exemplary compound of formula (II) in 5 single solvents and 9 mixed solvents at room temperature (about 25 °C) was also tested. Table 1. Approximate solubility (mg/mL) of the starting free base at room temperature

[5] = Acceleration stability test at 40 °C and 75% humidity, one month
Procedure: The commercially available amorphous form of rifabutin and the crystal forms V and VI of the present application were separately placed in a constant-temperature and constant-humidity incubator at 40 °C and 75% humidity for acceleration test. After one month, the change in purity was determined.

With `CO[C@H]1/C=C/O[C@@]2(C)Oc3c(C)c(O)c4c(c3C2=O)C2=NC3(CCN(CCn5c([N+](=O)[O-])cnc5C)CC3)NC2=C(NC(=O)/C(C)=C\C=C\[C@H](C)[C@H](O)[C@@H](C)[C@@H](O)[C@@H](C)[C@H](OC(C)=O)[C@@H]1C)C4=O` [Crystal form I of triphenylacetate salt] the water absorption ([1]; 25 °C/80% RH (relative to 0% RH), about 1 H2O) was 1.5%, the hygroscopicity ([1]; DVS, 25 °C/80% RH) was “slightly hygroscopic” and the “change in appearance of crystal form before/after DVS evaluation (XRPD)” value ([1]; before/after DVS) was “no change”. For the same molecule, the Change in appearance ([2]; 25 °C/60% RH Open) was “No change”, the “Change in crystal form” value ([2]; 25 °C/60% RH Open) was “No change” and the Purity ([2]; 25 °C/60% RH Open) was 98.09 Area%. The Change in appearance ([2]; 40 °C/75% RH Open) was “No change”, the “Change in crystal form” value ([2]; 40 °C/75% RH Open) was “No change” and the Purity ([2]; 40 °C/75% RH Open) was 98.22 Area%. For the same molecule, the “Starting sample Purity” value ([2]; starting sample, before storage) was 97.23 Area%, the “S: Solubility” value ([3]; Water, 1 h) was “<LOQ” and the “S: Solubility” value ([3]; Water, 4 h) was “<LOQ”. For the same molecule, the “S: Solubility” value ([3]; Water, 24 h) was “<LOQ”, the solubility at 1 h ([3]; fassgf, pH 1.6, FaSSGF (1.6), 1 h) was 1300 µg/mL and the solubility at 4 h ([3]; fassgf, pH 1.6, FaSSGF (1.6), 4 h) was 1600 µg/mL. For the same molecule, the solubility at 24 h ([3]; fassgf, pH 1.6, FaSSGF (1.6), 24 h) was about 1600 µg/mL, the solubility at 1 h ([3]; fassif, pH 6.5, FaSSIF (6.5), 1 h) was 12 µg/mL and the solubility at 4 h ([3]; fassif, pH 6.5, FaSSIF (6.5), 4 h) was 5.7 µg/mL. It also gave a solubility at 24 h ([3]; fassif, pH 6.5, FaSSIF (6.5), 24 h) of 7.5 µg/mL, a solubility at 1 h ([3]; fessgf, pH 5, FeSSGF (5.0), 1 h) of 120 µg/mL and a solubility at 4 h ([3]; fessgf, pH 5, FeSSGF (5.0), 4 h) of 180 µg/mL. The solubility at 24 h ([3]; fessgf, pH 5, FeSSGF (5.0), 24 h) was 220 µg/mL, the solubility at 1 h ([3]; fessif, pH 5, FeSSIF (5.0), 1 h) was 120 µg/mL and the solubility at 4 h ([3]; fessif, pH 5, FeSSIF (5.0), 4 h) was 120 µg/mL. For the same molecule, the solubility at 24 h ([3]; fessif, pH 5, FeSSIF (5.0), 24 h) was 140 µg/mL, the “FC: change in appearance” value ([3]; FaSSGF (1.6), 1 h) was “No” and the “FC: change in appearance” value ([3]; FaSSGF (1.6), 4 h) was “No”. For the same molecule, the “FC: change in appearance” value ([3]; FaSSGF (1.6), 24 h) was “No”, the “FC: change in appearance” value ([3]; FaSSIF (6.5), 1 h) was “No” and the “FC: change in appearance” value ([3]; FaSSIF (6.5), 4 h) was “No”. The “FC: change in appearance” value ([3]; FaSSIF (6.5), 24 h) was “No”, the “FC: change in appearance” value ([3]; FeSSGF (5.0), 1 h) was “No” and the “FC: change in appearance” value ([3]; FeSSGF (5.0), 4 h) was “No”. The “FC: change in appearance” value ([3]; FeSSGF (5.0), 24 h) was “No”, the “FC: change in appearance” value ([3]; FeSSIF (5.0), 1 h) was “No” and the “FC: change in appearance” value ([3]; FeSSIF (5.0), 4 h) was “No”. The “FC: change in appearance” value ([3]; FeSSIF (5.0), 24 h) was “No”, the “FC: change in appearance” value ([3]; Water, 1 h) was “No” and the “FC: change in appearance” value ([3]; Water, 4 h) was “No”. The “FC: change in appearance” value ([3]; Water, 24 h) was “No”, the pH ([3]; FaSSGF (1.6), 1 h) was 1.55 and the pH ([3]; FaSSGF (1.6), 4 h) was 1.57. The pH ([3]; FaSSGF (1.6), 24 h) was 1.54, the pH ([3]; FaSSIF (6.5), 1 h) was 6.37 and the pH ([3]; FaSSIF (6.5), 4 h) was 6.37. The pH ([3]; FaSSIF (6.5), 24 h) was 6.40, the pH ([3]; FeSSGF (5.0), 1 h) was 5.03 and the pH ([3]; FeSSGF (5.0), 4 h) was 5.07. It also gave a pH ([3]; FeSSGF (5.0), 24 h) of 5.07, a pH ([3]; FeSSIF (5.0), 1 h) of 4.85 and a pH ([3]; FeSSIF (5.0), 4 h) of 4.84. The pH ([3]; FeSSIF (5.0), 24 h) was 4.84, the pH ([3]; Water, 1 h) was 4.45 and the pH ([3]; Water, 4 h) was 4.44. For the same molecule, the pH ([3]; Water, 24 h) was 4.62.

Work on `CO[C@H]1/C=C/O[C@@]2(C)Oc3c(C)c(O)c4c(c3C2=O)C2=NC3(CCN(CCn5c([N+](=O)[O-])cnc5C)CC3)NC2=C(NC(=O)/C(C)=C\C=C\[C@H](C)[C@H](O)[C@@H](C)[C@@H](O)[C@@H](C)[C@H](OC(C)=O)[C@@H]1C)C4=O` [starting free base] yielded a solubility ([4]; 2-MeTHF) of over 41400 µg/mL, a solubility ([4]; 2-MeTHF:MTBE (1:1) v:v) of over 42400 µg/mL and a solubility ([4]; EtOAc) of over 40800 µg/mL. The solubility ([4]; EtOAc:MTBE (1:1) v:v) was over 41400 µg/mL, the solubility ([4]; IPA) was over 39200 µg/mL and the solubility ([4]; IPA:H2O (1:1) v:v) was 20500 to 41000 µg/mL (≈ 21.7 to 43.4 mM). It also gave a solubility ([4]; IPA:H2O (3:1) v:v) of over 41200 µg/mL, a solubility ([4]; IPA:H2O (5:1) v:v) of over 41200 µg/mL and a solubility ([4]; IPA:H2O (9:1) v:v) of over 41400 µg/mL. For the same molecule, the solubility ([4]; IPA:H2O (19:1) v:v) was over 42200 µg/mL, the solubility ([4]; IPA:n-Heptane (1:1) v:v) was 20700 to 41400 µg/mL (≈ 21.9 to 43.9 mM) and the solubility ([4]; MTBE) was 6700 to 20100 µg/mL (≈ 7.1 to 21.3 mM). For the same molecule, the solubility ([4]; Toluene) was over 41400 µg/mL and the solubility ([4]; Toluene:MTBE (1:1) v:v) was over 42400 µg/mL.

With `CO[C@H]1/C=C/O[C@@]2(C)Oc3c(C)c(O)c4c(c3C2=O)C2=NC3(CCN(CC(C)C)CC3)NC2=C(NC(=O)/C(C)=C\C=C\[C@H](C)[C@H](O)[C@@H](C)[C@@H](O)[C@@H](C)[C@H](OC(C)=O)[C@@H]1C)C4=O` [amorphous product of rifabutin, rifabutin] the Purity ([5]; after one month at 40 °C and 75% humidity) was 95.54% and the “purity of the original sample” value ([5]; original sample, before storage) was 95.9%.
